Results taken from patent US11123337B2, “4-methylsulfonyl-substituted piperidine urea compounds” (MYOKARDIA, INC., priority 2015, dated 2021).

What follows are molecules tested against bovine cardiac myosin (Bos taurus, UniProt Q9BE39) (assay: Myosin activation assay (PK/LDH-coupled ATPase, bovine cardiac myofibrils)). Conditions: AC20 = concentration at which total response is increased by twenty percent.
Type: biochemical
How it was run: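 Values are the concentrations raising the ATPase rate by 20% or 50% over DMSO, from 10-point dose responses fitted with four parameters. Rate is NADH loss at 340 nm via PK/LDH coupling, read 15 min at room temperature, in pH 6.8 PIPES with 50 μM ATP. Bovine cardiac myofibrils were held at pCa ~6 or pCa 10.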

bovine cardiac myosin, sequence (Q9BE39 whole entry): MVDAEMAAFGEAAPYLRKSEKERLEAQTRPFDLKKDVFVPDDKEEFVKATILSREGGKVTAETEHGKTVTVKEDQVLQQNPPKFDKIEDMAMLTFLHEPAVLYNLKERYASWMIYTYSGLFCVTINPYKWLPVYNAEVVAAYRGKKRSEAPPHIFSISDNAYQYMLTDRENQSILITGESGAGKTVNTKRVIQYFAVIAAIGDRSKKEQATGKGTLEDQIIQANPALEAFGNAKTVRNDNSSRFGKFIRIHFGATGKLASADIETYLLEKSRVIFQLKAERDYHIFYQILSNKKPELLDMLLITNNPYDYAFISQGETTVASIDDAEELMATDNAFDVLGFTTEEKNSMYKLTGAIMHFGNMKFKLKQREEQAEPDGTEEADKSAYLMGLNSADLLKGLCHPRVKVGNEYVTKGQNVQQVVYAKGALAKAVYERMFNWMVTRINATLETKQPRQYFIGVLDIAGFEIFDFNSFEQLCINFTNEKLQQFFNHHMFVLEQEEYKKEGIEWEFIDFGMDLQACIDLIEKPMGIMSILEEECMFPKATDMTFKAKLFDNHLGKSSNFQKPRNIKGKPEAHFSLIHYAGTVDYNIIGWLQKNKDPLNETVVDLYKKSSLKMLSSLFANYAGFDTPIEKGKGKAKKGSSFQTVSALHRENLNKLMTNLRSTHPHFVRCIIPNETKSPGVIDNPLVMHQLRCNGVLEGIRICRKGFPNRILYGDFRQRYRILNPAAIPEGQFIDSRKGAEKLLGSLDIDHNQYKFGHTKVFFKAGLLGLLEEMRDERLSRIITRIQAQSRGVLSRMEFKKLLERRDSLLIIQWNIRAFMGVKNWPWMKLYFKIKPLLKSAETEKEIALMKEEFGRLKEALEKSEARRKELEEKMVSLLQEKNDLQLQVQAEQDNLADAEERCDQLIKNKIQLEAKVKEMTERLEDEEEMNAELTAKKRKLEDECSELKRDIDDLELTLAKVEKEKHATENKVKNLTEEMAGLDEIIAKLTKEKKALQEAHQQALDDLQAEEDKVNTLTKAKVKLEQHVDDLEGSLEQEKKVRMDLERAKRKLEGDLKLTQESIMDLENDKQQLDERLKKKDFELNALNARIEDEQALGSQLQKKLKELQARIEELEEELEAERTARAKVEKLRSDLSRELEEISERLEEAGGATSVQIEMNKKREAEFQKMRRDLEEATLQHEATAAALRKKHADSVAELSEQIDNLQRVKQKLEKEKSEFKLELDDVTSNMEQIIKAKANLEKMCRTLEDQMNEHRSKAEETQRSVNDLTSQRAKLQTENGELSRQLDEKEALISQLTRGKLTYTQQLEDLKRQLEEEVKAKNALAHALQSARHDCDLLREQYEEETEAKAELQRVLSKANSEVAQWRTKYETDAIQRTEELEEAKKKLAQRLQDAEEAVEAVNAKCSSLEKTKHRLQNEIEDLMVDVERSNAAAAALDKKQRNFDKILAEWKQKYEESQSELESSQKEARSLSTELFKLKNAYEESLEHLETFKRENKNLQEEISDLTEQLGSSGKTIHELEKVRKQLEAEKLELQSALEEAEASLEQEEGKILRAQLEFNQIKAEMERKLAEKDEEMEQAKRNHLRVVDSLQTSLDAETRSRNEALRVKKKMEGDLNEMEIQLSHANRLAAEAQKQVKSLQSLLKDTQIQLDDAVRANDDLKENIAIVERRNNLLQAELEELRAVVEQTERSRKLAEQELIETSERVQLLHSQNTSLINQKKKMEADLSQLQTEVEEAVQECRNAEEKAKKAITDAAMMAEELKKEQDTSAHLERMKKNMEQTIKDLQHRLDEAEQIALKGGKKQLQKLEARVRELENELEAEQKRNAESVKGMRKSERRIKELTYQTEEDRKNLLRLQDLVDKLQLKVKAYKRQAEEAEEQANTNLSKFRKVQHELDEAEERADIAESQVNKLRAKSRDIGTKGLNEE
bovine cardiac myosin, sequence (P85100 whole entry partner): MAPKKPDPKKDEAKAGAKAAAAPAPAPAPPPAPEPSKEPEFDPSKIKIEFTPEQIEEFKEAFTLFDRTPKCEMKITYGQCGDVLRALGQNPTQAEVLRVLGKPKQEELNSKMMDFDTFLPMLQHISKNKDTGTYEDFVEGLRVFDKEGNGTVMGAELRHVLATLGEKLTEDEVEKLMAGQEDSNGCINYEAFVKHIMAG
bovine cardiac myosin, sequence (Q3SZE5 whole entry partner): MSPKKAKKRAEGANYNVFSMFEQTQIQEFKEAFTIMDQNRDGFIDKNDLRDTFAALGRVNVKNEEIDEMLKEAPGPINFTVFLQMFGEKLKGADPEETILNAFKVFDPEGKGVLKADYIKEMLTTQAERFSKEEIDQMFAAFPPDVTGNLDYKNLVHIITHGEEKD

Row | SMILES | Myosin Activation (AC20)
1 | Cn1nccc1S(=O)(=O)C1(C2CCN(C(=O)Nc3cnns3)CC2)CCC1 [Compound 175, 4-(1-((1-methyl-1H-pyrazol-5-yl)sulfonyl)cyclobutyl)-N-(1,2,3-thiadiazol-5-yl)piperidine-1-carboxamide] | +++ (+++ represents myosin activation value AC20 < 2 μM)
2 | Cn1nc(C(F)(F)F)cc1S(=O)(=O)C(C)(C)C1CCN(C(=O)Nc2ccnc(F)c2)CC1 [Compound 127, N-(2-fluoropyridin-4-yl)-4-(2-((1-methyl-3-(trifluoromethyl)-1H-pyrazol-5-yl)sulfonyl)propan-2-yl)piperidine-1-carboxamide] | ++ (++ represents myosin activation value AC20 from 2 μM-5 μM)
3 | COc1ccc(Cl)c(S(=O)(=O)C(F)(F)C2CCN(C(=O)Nc3ccnnc3)CC2)c1 [Compound 72, 4-(((2-chloro-5-methoxyphenyl)sulfonyl)difluoromethyl)-N-(pyridazin-4-yl)piperidine-1-carboxamide] | +++ (+++ represents myosin activation value AC20 < 2 μM)
4 | Cn1cc(S(=O)(=O)C(C)(C)C2CCN(C(=O)Nc3ccnnc3)CC2)c(C(F)(F)F)n1 [Compound 120, 4-(2-((1-methyl-3-(trifluoromethyl)-1H-pyrazol-4-yl)sulfonyl)propan-2-yl)-N-(pyridazin-4-yl)piperidine-1-carboxamide] | ++ (++ represents myosin activation value AC20 from 2 μM-5 μM)
5 | O=C(Nc1ccnnc1)N1CCC(C(F)(F)S(=O)(=O)c2ccccc2-n2cccn2)CC1 [Compound 95, 4-(((2-(1H-pyrazol-1-yl)phenyl)sulfonyl)difluoromethyl)-N-(pyridazin-4-yl)piperidine-1-carboxamide] | + (+ represents myosin activation value AC20 > 5 μM)
6 | C[C@](F)(C1CCN(C(=O)Nc2ccon2)CC1)S(=O)(=O)c1cccc(F)c1 [Compound 284, (R)-4-(1-fluoro-1-((3-fluorophenyl)sulfonyl)ethyl)-N-(isoxazol-3-yl)piperidine-1-carboxamide] | +++ (+++ represents myosin activation value AC20 < 2 μM)
7 | C[C@@](F)(C1CCN(C(=O)Nc2ccnnc2)CC1)S(=O)(=O)c1cccc(F)c1 [Compound 279, (S)-4-(1-fluoro-1-((3-fluorophenyl)sulfonyl)ethyl)-N-(pyridazin-4-yl)piperidine-1-carboxamide] | + (+ represents myosin activation value AC20 > 5 μM)
8 | CC(C)n1cc(S(=O)(=O)CC2CCN(C(=O)Nc3ccncc3)CC2)cn1 [Compound 1, 4-(((1-Isopropyl-1H-pyrazol-4-yl)sulfonyl)methyl)-N-(pyridin-4-yl)piperidine-1-carboxamide] | + (+ represents myosin activation value AC20 > 5 μM)
9 | O=C(Nc1ccns1)N1CCC(C2(S(=O)(=O)c3ccc(OC(F)(F)F)cc3)CC2)CC1 [Compound 207, N-(isothiazol-5-yl)-4-(1-((4-(trifluoromethoxy)phenyl)sulfonyl)cyclopropyl)piperidine-1-carboxamide] | +++ (+++ represents myosin activation value AC20 < 2 μM)
10 | CC(C)(C1CCN(C(=O)Nc2cc[nH]n2)CC1)S(=O)(=O)c1cccc(F)c1 [Compound 147, 4-(2-((3-fluorophenyl)sulfonyl)propan-2-yl)-N-(1H-pyrazol-3-yl)piperidine-1-carboxamide] | + (+ represents myosin activation value AC20 > 5 μM)
11 | [2H]C([2H])([2H])n1cc(S(=O)(=O)[C@@](F)(C2CCN(C(=O)Nc3ccon3)CC2)C([2H])([2H])[2H])c(C(F)F)n1 [Compound 306, (R)-4-(1-((3-(difluoromethyl)-1-(methyl-d3)-1H-pyrazol-4-yl)sulfonyl)-1-fluoroethyl-2,2,2-d3)-N-(isoxazol-3-yl)piperidine-1-carboxamide] | +++ (+++ represents myosin activation value AC20 < 2 μM)
12 | Cn1nccc1S(=O)(=O)C(C)(F)C1CCN(C(=O)Nc2ccc(F)nc2)CC1 (centres unmarked) [Compound 228, 4-(1-fluoro-1-((1-methyl-1H-pyrazol-5-yl)sulfonyl)ethyl)-N-(6-fluoropyridin-3-yl)piperidine-1-carboxamide] | ++ (++ represents myosin activation value AC20 from 2 μM-5 μM)
13 | C[C@](F)(C1CCN(C(=O)Nc2ccnnc2)CC1)S(=O)(=O)c1cccc(F)c1 [Compound 278, (R)-4-(1-fluoro-1-((3-fluorophenyl)sulfonyl)ethyl)-N-(pyridazin-4-yl)piperidine-1-carboxamide] | +++ (+++ represents myosin activation value AC20 < 2 μM)
14 | Cn1cc(S(=O)(=O)C(C)(F)C2CCN(C(=O)Nc3ccnnc3)CC2)c(C(F)(F)F)n1 (centres unmarked) [Compound 281, 4-(1-fluoro-1-((1-methyl-3-(trifluoromethyl)-1H-pyrazol-4-yl)sulfonyl)ethyl)-N-(pyridazin-4-yl)piperidine-1-carboxamide] | ++ (++ represents myosin activation value AC20 from 2 μM-5 μM)
15 | Cn1nccc1NC(=O)N1CCC(C(C)(C)S(=O)(=O)c2cccc(F)c2)CC1 [Compound 136, 4-(2-((3-fluorophenyl)sulfonyl)propan-2-yl)-N-(1-methyl-1H-pyrazol-5-yl)piperidine-1-carboxamide] | + (+ represents myosin activation value AC20 > 5 μM)
16 | Cn1cc(S(=O)(=O)C(C)(F)C2CCN(C(=O)Nc3ccnnc3)CC2)c(C(F)F)n1 (centres unmarked) [Compound 276, 4-(1-((3-(difluoromethyl)-1-methyl-1H-pyrazol-4-yl)sulfonyl)-1-fluoroethyl)-N-(pyridazin-4-yl)piperidine-1-carboxamide] | +++ (+++ represents myosin activation value AC20 < 2 μM)
17 | Cc1cc(C#N)ccc1S(=O)(=O)C(C)(C)C1CCN(C(=O)Nc2ccnnc2)CC1 [Compound 196, 4-(2-((4-cyano-2-methylphenyl)sulfonyl)propan-2-yl)-N-(pyridazin-4-yl)piperidine-1-carboxamide] | ++ (++ represents myosin activation value AC20 from 2 μM-5 μM)
18 | O=C(Nc1ccnnc1)N1CCC(C(F)(F)S(=O)(=O)c2ccc(O)nc2)CC1 [Compound 88, 4-(difluoro((6-hydroxypyridin-3-yl)sulfonyl)methyl)-N-(pyridazin-4-yl)piperidine-1-carboxamide] | + (+ represents myosin activation value AC20 > 5 μM)
19 | Cn1cncc1S(=O)(=O)C(C)(C)C1CCN(C(=O)Nc2ccnnc2)CC1 [Compound 148, 4-(2-((1-methyl-1H-imidazol-5-yl)sulfonyl)propan-2-yl)-N-(pyridazin-4-yl)piperidine-1-carboxamide] | + (+ represents myosin activation value AC20 > 5 μM)
20 | Cc1ccccc1S(=O)(=O)C(C)(C)C1CCN(C(=O)Nc2ccncc2)CC1 [Compound 212, N-(pyridin-4-yl)-4-(2-(o-tolylsulfonyl)propan-2-yl)piperidine-1-carboxamide] | +++ (+++ represents myosin activation value AC20 < 2 μM)
21 | Cc1ccc(F)cc1S(=O)(=O)C(F)(F)C1CCN(C(=O)Nc2ccnnc2)CC1 [Compound 63, 4-(difluoro((5-fluoro-2-methylphenyl)sulfonyl)methyl)-N-(pyridazin-4-yl)piperidine-1-carboxamide] | ++ (++ represents myosin activation value AC20 from 2 μM-5 μM)
22 | CC(C)(C1CCN(C(=O)Nc2ccnc(Cl)c2)CC1)S(=O)(=O)c1cccc(F)c1 [Compound 160, N-(2-chloropyridin-4-yl)-4-(2-((3-fluorophenyl)sulfonyl)propan-2-yl)piperidine-1-carboxamide] | ++ (++ represents myosin activation value AC20 from 2 μM-5 μM)
23 | Cn1nc(Cl)cc1S(=O)(=O)C(C)(C)C1CCN(C(=O)Nc2ccnnc2)CC1 [Compound 140, 4-(2-((3-chloro-1-methyl-1H-pyrazol-5-yl)sulfonyl)propan-2-yl)-N-(pyridazin-4-yl)piperidine-1-carboxamide] | +++ (+++ represents myosin activation value AC20 < 2 μM)
24 | C[C@@H](O)c1cc(NC(=O)N2CCC([C@](C)(F)S(=O)(=O)c3cccc(F)c3)CC2)ccn1 [Compound 303, 4-((R)-1-fluoro-1-((3-fluorophenyl)sulfonyl)ethyl)-N-(2-((R)-1-hydroxyethyl)pyridin-4-yl)piperidine-1-carboxamide] | + (+ represents myosin activation value AC20 > 5 μM)
25 | C[C@](F)(C1CCN(C(=O)Nc2cnc3c(c2)CNC3=O)CC1)S(=O)(=O)c1cccc(F)c1 [Compound 301, (R)-4-(1-fluoro-1-((3-fluorophenyl)sulfonyl)ethyl)-N-(7-oxo-6,7-dihydro-5H-pyrrolo[3,4-b]pyridin-3-yl)piperidine-1-carboxamide] | ++ (++ represents myosin activation value AC20 from 2 μM-5 μM)
26 | CC(F)(C1CCN(C(=O)Nc2ccon2)CC1)S(=O)(=O)c1ccc(C(F)(F)F)cc1 (centres unmarked) [Compound 8, 4-(1-Fluoro-1-((4-(trifluoromethyl)phenyl)sulfonyl)ethyl)-N-(isoxazol-3-yl)piperidine-1-carboxamide] | +++ (+++ represents myosin activation value AC20 < 2 μM)
27 | Cc1ccc(NC(=O)N2CCC(C(C)(F)S(=O)(=O)c3cc(C(F)(F)F)nn3C)CC2)cn1 (centres unmarked) [Compound 250, 4-(1-fluoro-1-((1-methyl-3-(trifluoromethyl)-1H-pyrazol-5-yl)sulfonyl)ethyl)-N-(6-methylpyridin-3-yl)piperidine-1-carboxamide] | ++ (++ represents myosin activation value AC20 from 2 μM-5 μM)
28 | COc1ccccc1S(=O)(=O)C(F)(F)C1CCN(C(=O)Nc2ccnnc2)CC1 [Compound 62, 4-(difluoro((2-methoxyphenyl)sulfonyl)methyl)-N-(pyridazin-4-yl)piperidine-1-carboxamide] | + (+ represents myosin activation value AC20 > 5 μM)
29 | CC(F)(C1CCN(C(=O)Nc2ccnnc2)CC1)S(=O)(=O)c1ccc(C(F)(F)F)nc1 (centres unmarked) [Compound 262, 4-(1-fluoro-1-((6-(trifluoromethyl)pyridin-3-yl)sulfonyl)ethyl)-N-(pyridazin-4-yl)piperidine-1-carboxamide] | +++ (+++ represents myosin activation value AC20 < 2 μM)
